What was measured:
LIMK2 = LIMK2 (Homo sapiens, UniProt P53671); experiment: NanoBRET tracer displacement, HEK293T; format: cell-based
LIMK1 = LIMK1 (Homo sapiens, UniProt P53667); experiment: NanoBRET tracer displacement, HEK293T; format: cell-based; settings: intact cells; […] °C, […] h; competitive with tracer
[1] = molecular target: MST4 (full-length, NanoLuc fusion) (Homo sapiens, UniProt Q9P289); experiment: NanoBRET tracer displacement, HEK293T; format: cell-based
[2] = molecular target: MST3 (full-length, NanoLuc fusion) (Homo sapiens, UniProt Q9Y6E0); experiment: cell-based
CAMK2D = CAMK2D (Homo sapiens, UniProt Q13557); settings: 1 µM; inhibitor
CDK1/CycA2 = CDK1/CycA2 (Homo sapiens, UniProt P06493); settings: 1 µM; inhibitor
CDK4/CycD2 = CDK4/CycD2 (Homo sapiens, UniProt P11802); settings: 1 µM; inhibitor
CDK5/p35NCK = CDK5/p35NCK (Homo sapiens, UniProt Q00535); settings: 1 µM; inhibitor
DDR2 = DDR2 (Homo sapiens, UniProt Q16832); settings: 1 µM; inhibitor
HCK = HCK (Homo sapiens, UniProt P08631); settings: 1 µM; inhibitor
JAK1 = JAK1 (Homo sapiens, UniProt P23458); settings: 1 µM; inhibitor
MERTK = MERTK (Homo sapiens, UniProt Q12866); settings: 1 µM; inhibitor
MKNK2 = MKNK2 (Homo sapiens, UniProt Q9HBH9); settings: 1 µM; inhibitor
MST1 = MST1 (Homo sapiens, UniProt Q13043); settings: 1 µM; inhibitor
MUSK = MUSK (Homo sapiens, UniProt O15146); settings: 1 µM; inhibitor
PKCz = PKCz (Homo sapiens, UniProt Q05513); settings: 1 µM; inhibitor
PRKX = PRKX (Homo sapiens, UniProt P51817); settings: 1 µM; inhibitor
TRKC = TRKC (Homo sapiens, UniProt Q16288); settings: 1 µM; inhibitor
TYRO3 = TYRO3 (Homo sapiens, UniProt Q06418); settings: 1 µM; inhibitor
DYRK1B = DYRK1B (Homo sapiens, UniProt Q9Y463); experiment: biochemical; settings: read-out: 21c Remaining activity, percent of control [%]
LTK = LTK (Homo sapiens, UniProt P29376); experiment: biochemical; settings: read-out: 21c Remaining activity, percent of control [%]
MST3 = MST3 (Homo sapiens, UniProt Q9Y6E0); experiment: biochemical; settings: 1 µM; inhibitor
STK33 = STK33 (Homo sapiens, UniProt Q9BYT3); experiment: biochemical; settings: read-out: 21c Remaining activity, percent of control [%]
TTBK1 = TTBK1 (Homo sapiens, UniProt Q5TCY1); experiment: biochemical; settings: read-out: 21c Remaining activity, percent of control [%]

Sequence of MERTK (Q12866 whole entry): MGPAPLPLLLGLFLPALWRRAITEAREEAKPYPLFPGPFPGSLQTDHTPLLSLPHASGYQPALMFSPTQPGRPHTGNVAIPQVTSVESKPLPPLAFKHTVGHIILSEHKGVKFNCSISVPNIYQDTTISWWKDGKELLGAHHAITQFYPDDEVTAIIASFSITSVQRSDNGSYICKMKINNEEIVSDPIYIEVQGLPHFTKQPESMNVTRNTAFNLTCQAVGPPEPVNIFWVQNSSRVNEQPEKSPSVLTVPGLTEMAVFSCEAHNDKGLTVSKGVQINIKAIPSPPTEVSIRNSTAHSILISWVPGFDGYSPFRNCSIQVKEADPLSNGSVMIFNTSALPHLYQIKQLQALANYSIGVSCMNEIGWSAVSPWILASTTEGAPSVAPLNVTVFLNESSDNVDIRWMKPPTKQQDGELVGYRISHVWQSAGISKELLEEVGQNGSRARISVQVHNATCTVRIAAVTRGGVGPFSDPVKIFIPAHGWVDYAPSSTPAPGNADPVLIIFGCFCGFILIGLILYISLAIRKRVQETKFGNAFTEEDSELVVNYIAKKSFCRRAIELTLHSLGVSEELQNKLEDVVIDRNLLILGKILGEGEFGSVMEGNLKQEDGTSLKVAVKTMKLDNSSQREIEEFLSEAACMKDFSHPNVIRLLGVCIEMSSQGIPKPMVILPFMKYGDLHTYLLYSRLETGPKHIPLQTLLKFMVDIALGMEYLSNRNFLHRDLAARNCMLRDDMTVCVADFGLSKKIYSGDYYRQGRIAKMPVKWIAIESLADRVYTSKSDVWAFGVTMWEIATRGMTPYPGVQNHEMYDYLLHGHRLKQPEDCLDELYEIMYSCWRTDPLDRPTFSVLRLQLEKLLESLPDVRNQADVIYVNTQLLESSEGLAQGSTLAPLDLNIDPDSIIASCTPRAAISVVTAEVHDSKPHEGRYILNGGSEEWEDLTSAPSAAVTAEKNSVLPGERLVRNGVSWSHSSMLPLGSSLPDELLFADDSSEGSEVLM
Sequence of DYRK1B (Q9Y463 whole entry): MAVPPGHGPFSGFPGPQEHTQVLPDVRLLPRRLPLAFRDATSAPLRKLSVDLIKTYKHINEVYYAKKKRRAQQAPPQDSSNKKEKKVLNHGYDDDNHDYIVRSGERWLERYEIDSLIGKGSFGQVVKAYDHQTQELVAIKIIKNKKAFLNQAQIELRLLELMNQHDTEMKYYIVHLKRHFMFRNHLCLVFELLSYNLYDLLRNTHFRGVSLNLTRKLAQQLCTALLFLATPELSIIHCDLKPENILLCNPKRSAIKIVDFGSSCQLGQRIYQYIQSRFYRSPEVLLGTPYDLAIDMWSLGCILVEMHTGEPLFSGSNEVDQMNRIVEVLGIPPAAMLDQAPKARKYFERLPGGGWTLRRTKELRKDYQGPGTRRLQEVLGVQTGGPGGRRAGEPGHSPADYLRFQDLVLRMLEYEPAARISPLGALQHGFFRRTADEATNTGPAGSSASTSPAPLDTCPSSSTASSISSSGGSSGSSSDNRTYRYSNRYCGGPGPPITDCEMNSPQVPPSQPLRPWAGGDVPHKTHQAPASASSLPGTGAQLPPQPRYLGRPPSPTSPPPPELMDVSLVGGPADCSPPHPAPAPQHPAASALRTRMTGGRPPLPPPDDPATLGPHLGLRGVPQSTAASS
Sequence of DDR2 (Q16832 whole entry): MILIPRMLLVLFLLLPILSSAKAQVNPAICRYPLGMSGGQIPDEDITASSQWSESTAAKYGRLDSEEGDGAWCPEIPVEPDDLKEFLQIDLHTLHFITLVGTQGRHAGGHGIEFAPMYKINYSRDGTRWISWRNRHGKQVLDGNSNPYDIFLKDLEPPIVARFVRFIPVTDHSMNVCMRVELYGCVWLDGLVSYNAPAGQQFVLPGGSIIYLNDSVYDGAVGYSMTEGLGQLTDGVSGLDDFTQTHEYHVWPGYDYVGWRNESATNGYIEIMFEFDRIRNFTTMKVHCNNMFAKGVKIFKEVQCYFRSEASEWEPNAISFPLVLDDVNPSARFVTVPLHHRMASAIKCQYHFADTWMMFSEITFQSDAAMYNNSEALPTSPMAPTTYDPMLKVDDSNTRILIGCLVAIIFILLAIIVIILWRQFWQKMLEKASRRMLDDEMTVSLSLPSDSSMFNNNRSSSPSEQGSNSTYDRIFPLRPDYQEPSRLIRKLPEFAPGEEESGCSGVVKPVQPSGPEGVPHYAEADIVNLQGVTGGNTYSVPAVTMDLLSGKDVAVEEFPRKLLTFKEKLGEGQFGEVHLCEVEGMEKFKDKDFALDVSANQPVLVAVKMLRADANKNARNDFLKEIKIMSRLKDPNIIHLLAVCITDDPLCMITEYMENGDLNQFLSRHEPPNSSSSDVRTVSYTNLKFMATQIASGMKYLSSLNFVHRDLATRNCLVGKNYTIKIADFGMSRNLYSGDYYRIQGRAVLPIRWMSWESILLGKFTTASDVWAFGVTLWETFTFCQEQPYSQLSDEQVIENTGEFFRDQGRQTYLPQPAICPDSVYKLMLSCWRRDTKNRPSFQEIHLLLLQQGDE
Sequence of PRKX (P51817 whole entry): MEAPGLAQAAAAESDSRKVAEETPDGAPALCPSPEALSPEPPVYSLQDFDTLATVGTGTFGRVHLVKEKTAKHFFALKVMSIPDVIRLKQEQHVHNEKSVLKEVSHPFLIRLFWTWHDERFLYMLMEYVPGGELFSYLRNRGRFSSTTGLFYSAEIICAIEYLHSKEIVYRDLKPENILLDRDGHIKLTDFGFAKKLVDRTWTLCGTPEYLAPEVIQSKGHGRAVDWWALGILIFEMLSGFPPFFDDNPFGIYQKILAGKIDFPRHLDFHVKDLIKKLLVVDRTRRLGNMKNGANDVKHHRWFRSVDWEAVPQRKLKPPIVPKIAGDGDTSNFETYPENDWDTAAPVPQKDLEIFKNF
Sequence of JAK1 (P23458 whole entry): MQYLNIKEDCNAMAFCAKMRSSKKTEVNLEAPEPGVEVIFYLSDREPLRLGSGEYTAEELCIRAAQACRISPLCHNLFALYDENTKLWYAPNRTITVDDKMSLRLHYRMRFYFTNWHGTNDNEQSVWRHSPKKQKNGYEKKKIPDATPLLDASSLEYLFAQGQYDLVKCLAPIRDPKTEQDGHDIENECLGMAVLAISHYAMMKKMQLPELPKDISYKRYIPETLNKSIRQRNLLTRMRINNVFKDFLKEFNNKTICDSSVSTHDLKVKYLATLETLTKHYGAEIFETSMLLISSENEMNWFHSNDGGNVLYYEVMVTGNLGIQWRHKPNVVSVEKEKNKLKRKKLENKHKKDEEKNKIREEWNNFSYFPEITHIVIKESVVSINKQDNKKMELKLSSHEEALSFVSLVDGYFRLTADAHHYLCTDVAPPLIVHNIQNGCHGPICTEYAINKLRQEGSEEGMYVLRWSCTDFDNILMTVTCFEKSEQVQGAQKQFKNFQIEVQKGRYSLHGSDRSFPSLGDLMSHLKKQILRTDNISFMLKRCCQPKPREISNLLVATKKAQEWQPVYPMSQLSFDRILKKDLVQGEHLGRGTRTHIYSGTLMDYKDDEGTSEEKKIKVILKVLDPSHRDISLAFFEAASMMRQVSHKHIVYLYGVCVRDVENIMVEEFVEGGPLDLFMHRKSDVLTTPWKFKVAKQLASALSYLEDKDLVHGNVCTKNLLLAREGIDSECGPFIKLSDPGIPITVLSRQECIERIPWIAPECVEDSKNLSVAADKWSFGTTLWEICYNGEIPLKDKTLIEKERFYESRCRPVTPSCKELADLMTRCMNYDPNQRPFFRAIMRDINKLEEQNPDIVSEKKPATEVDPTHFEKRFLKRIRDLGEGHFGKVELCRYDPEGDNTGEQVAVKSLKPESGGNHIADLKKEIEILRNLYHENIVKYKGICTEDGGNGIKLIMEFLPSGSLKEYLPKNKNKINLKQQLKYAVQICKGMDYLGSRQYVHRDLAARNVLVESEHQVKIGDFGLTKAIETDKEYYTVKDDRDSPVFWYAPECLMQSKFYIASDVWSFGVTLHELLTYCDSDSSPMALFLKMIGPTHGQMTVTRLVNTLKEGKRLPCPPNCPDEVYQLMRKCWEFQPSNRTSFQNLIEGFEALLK
Sequence of MUSK (O15146 whole entry): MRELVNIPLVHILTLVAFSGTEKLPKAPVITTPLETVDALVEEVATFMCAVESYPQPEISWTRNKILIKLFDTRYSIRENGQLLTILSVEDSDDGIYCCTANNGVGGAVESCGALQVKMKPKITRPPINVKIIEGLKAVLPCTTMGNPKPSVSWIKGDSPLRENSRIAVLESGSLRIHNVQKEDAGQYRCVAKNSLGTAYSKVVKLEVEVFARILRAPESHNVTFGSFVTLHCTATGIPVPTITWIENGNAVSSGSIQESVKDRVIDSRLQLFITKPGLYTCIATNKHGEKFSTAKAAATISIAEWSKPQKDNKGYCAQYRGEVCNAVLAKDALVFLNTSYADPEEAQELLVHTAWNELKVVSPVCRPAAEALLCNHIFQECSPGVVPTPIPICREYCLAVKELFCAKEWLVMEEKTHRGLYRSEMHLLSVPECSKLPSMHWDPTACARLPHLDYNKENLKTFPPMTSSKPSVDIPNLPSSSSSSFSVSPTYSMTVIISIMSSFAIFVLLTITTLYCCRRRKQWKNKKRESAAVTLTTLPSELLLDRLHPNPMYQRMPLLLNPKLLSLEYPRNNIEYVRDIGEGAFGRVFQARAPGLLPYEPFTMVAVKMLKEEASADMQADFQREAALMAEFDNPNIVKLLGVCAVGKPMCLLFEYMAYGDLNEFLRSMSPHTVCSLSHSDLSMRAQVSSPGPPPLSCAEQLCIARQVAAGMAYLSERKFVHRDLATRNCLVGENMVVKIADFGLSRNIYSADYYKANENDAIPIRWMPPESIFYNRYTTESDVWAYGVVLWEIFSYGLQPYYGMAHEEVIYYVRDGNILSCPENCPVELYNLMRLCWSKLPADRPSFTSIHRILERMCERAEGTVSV

O=C1NCCCCCNc2nc(c3ccccc3n2)Nc2cc1[nH]n2 [21c, (Z)-3^1H-2,5,11-triaza-1(4,2)-quinazolina-3(3,5)-pyrazolacycloundecaphan-4-one]
EC50 (LIMK2): 1400 nM
EC50 (LIMK1): 5670 ± 1020 nM
EC50 [1]: 1400 nM
EC50 [2]: 106 nM
21c Remaining activity, percent of control [%] (CAMK2D): 95.0%
21c Remaining activity, percent of control [%] (CDK1/CycA2): 91.9%
21c Remaining activity, percent of control [%] (CDK4/CycD2): 106.8%
21c Remaining activity, percent of control [%] (CDK5/p35NCK): 96.6%
21c Remaining activity, percent of control [%] (DDR2): 103.0%
21c Remaining activity, percent of control [%] (HCK): 94.0%
21c Remaining activity, percent of control [%] (JAK1): 88.0%
21c Remaining activity, percent of control [%] (MERTK): 44.2%
21c Remaining activity, percent of control [%] (MKNK2): 105.8%
21c Remaining activity, percent of control [%] (MST1): 105.6%
21c Remaining activity, percent of control [%] (MUSK): 83.0%
21c Remaining activity, percent of control [%] (PKCz): 96.3%
21c Remaining activity, percent of control [%] (PRKX): 93.9%
21c Remaining activity, percent of control [%] (TRKC): 102.0%
21c Remaining activity, percent of control [%] (TYRO3): 77.8%
remaining activity at 1 µM (DYRK1B): 79.7%
remaining activity at 1 µM (LTK): 92%
21c Remaining activity, percent of control [%] (MST3): 13.5%
remaining activity at 1 µM (STK33): 88.7%
remaining activity at 1 µM (TTBK1): 112%

From publication doi:10.1101/2023.10.20.563248v1 (biorxiv, 2023)
